# In patent publication US12156883B2, “Bisphosphocin gel formulations and uses thereof” (Lakewood Amedex, Inc., priority 2017, dated 2024):
# Entries after “also recorded” stand apart in the source; their conditions may differ.
# System: methicillin resistant Staphylococcus aureus strain USA300 (TPPS 1056)
# Experiment: Staphylococcus aureus-induced murine dermal infection model
# Assay type: in vivo
# Conditions: female SKH1 mice, topical 10% Nu-3 fatty alcohol-based gel pH 1.5, 4 h after challenge
# Description: Female SKH1 mice ordered from Charles River Laboratories are acclimated to housing conditions and handled in accordance with Animal Use Protocol (AUP) number TP-18. The animals are acclimated for a minimum of 24 hours prior to bacterial challenge and are 6-8 weeks old on Day 0 of the experiment. Only animals deemed healthy are included in this study. Animals are fed irradiated Teklad Global Rodent Diet 2918 and water ad libitum. Mice are housed in static cages with irradiated Teklad ⅛″ corn cob bedding 7902 inside bioBubble® Clean Rooms that provide H.E.P.A. filtered air into the bubble environment at 100 complete air changes per hour. All treatments and infectious challenges are carried out in a BSL2 surgical suite. The environment is controlled to a temperature range of 74°±4° F. and a humidity range of 30-70%. […]
# Immediately following tape stripping, each animal receives a topical application with approximately 6.0 log10 CFU per mouse in a volume of 100 μL spread in an area approximately 0.75″×0.75″. […] The final CFU count from the challenge suspension determined that 5.6 log10 CFU per mouse is delivered. […]
# Following euthanasia, a section of excised skin approximately 0.5″×0.5″ is aseptically removed from the infected/treated area and transferred to vials with 2.0 mL of sterile water and weighed. […] Tissue pH is measured using litmus paper and recorded. […]
smiles,measurement,setting,value
"CCCCOP(=O)(O)OC[C@H]1OC(n2cc(C)c(=O)[nH]c2=O)C[C@@H]1OP(=O)(O)OCCCC (stereo partly drawn) [Nu-3, (2R,3S)-2-((butoxy(hydroxy)phosphoryl)oxy)methyl)-5-(5-methyl-2,4-dioxo-3,4-dihydropyrimidin-1(2H)-yl)tetrahydrofuran-2-yl) butyl hydrogen phosphate]",CFU burden compared to untreated control animals,5 and 12 hours post-challenge,significant decreases; also recorded: significantly decreases
same,CFU burden compared to vehicle-treated animals,all harvest time points,significant decreases; also recorded: significantly decreases
